Results as given in patent US4530790A, “Cholecystokinin antagonists” (Merck & Co., Inc., priority 1983, dated 1985).
Blank lines part the entries; values can stand above or below the compound they belong to.

Assays:
[1] = test system: CCK; experiment: Capacity to antagonize CCK, relative to the compound of Formula I; conditions: based on the activity of the compound of Formula I (1 x)
Source text: The minor components A-D have also been tested for their capacity to antagonize CCK. Based on the activity of the compound of Formula I, the minor components relative activities are: […]

[2] = target: T1, CCK receptor (Rattus norvegicus, UniProt P30551); experiment: CCK receptor binding (inhibition of specific 125I-CCK-33 binding to whole pancreas membranes); set-up: species or system Male Sprague-Dawley rats; conditions: for IC50: rat pancreas, pH 7.7, 37° C., 30 minutes; for effect on the 125I-CCK receptor binding assay: added protease inhibitors, 1.2 mM phenylmethane sulfonyl fluoride, 0.5 mM o-phenanthroline in assay buffer
T1 construct: The whole pancreas was dissected free of fat tissue and was homogenized; from tissue; host or cells: rat whole pancreas membranes
T1 sequence (P30551 1-444): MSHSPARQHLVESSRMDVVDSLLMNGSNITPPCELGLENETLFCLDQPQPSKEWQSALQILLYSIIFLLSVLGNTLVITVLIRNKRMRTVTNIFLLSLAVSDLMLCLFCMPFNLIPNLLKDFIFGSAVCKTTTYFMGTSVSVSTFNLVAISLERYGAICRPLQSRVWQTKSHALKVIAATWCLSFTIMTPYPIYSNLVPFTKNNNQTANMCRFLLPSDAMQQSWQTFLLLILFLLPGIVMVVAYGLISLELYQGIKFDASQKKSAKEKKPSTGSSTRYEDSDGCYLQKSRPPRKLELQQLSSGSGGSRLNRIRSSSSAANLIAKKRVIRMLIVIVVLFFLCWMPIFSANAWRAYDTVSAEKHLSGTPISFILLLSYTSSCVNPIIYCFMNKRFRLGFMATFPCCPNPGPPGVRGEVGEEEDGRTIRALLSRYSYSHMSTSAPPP
Procedure: CCK-33 was radiolabeled with ^125 I-Bolton Hunter reagent (2000 Ci/mmole) as described by Sankara et al. (J. Biol. Chem. 254: 9349-9351, 1979). Receptor binding was performed according to Innis and Snyder (Proc. Natl. Acad. Sci. 77: 6917-6921, 1980) with the minor modification of adding the additional protease inhibitors, phenylmethane sulfonyl fluoride and o-phenanthroline. The latter two compounds have no effect of the ^125 I-CCK receptor binding assay.
Male Sprague-Dawley rats (200-350 g) were sacrificed by decapitation. The whole pancreas was dissected free of fat tissue and was homogenized in 20 volumes of ice-cold 50 mM, Tris HCl (pH 7.7 at 25° C.) with a Brinkmann Polytron PT 10. The homogenates were centrifuged at 48,000 g for 10 min. Pellets were resuspended in Tris Buffer, centrifuged as above and resuspended in 200 volumes of binding assay buffer (50 mM Tris HCl, pH 7.7 at 25° C., 5 mM dithiothreitol, 0.1 mM bacitracin, 1.2 mM phenylmethane sulfonyl fluoride and 0.5 mM o-phenanthroline). For the binding assay, 25 μl of buffer (for total binding) or unlabeled CCK-8 sulfate to give a final concentration of 1 μM (for nonspecific binding) or the compound of Formula I (for determination inhibition of ^125 I-CCK binding) and 25 μl of ^125 I-CCK-33 (30,000-40,000 cpm) were added to 450 μl of the membrane suspensions in microfuge tubes. All assays were run in duplicate or triplicate. The reaction mixtures were incubated at 37° C. for 30 minutes and centrifuged in a Beckman Microfuge (4 minutes) immediately after adding 1 ml of ice-cold incubation buffer. The supernatant was aspirated and discarded, pellets were counted with a Beckman gamma 5000. For Scatchard analysis (Ann. N.Y. Acad. Sci. 51: 660, 1949), ^125 I-CCK-33 was progressively diluted with increasing concentrations of CCK-33.

[3] = target: T2, isolated guinea pig gall bladder (CCK-8) (Cavia porcellus, UniProt Q63931); experiment: Isolated guinea pig gall bladder, antagonism of CCK-8 induced contraction; set-up: species or system Male Hartley guinea pigs
T2 construct: The whole gall bladder was dissected free from adjacent tissues; from tissue; host or cells: guinea pig gall bladder
T2 sequence (Q63931 1-430): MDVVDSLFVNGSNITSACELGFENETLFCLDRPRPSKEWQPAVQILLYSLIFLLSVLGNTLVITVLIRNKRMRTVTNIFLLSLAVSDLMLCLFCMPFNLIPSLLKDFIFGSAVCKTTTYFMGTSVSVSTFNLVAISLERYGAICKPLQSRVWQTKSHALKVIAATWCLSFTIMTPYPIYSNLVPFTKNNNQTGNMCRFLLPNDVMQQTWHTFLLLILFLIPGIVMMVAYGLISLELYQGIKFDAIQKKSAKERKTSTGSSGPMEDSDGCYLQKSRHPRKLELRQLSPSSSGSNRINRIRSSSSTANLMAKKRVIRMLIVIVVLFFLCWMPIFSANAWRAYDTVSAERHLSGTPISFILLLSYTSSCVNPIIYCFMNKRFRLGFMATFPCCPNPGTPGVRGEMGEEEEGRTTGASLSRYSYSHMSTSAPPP
Procedure: Male Hartley guinea pigs (400-600 g) were sacrificed by decapitation. The whole gall bladder was dissected free from adjacent tissues and its content gently squeezed out. The whole bladder was suspended in 5 ml organ bath under 1 g tension. The organ bath contained a Kreb's bicarbonate solution (NaCl 118 mM, KCl 4.75 mM, CaCl 2.54 mM, KH2 PO4 1.19 mM, Mg SO4 1.2 mM, NaHCO3 25 mM and dextrose 11 mM) maintained at 32° C. and bubbled with 95% O2 and 5% CO2. Isometric contractions were recorded using Statham (60 g; 0.12 mm) strain gauges and a Hewlett-Packard (77588) recorder. The tissues were washed every 10 minutes for 1 hr to obtain equilibrium prior to the beginning of the study. CCK-8 was added cumulatively to the baths and EC50 's determined using regression analysis. After washout (every 10 minutes for 1 hr), the compound of Formula I was added at least 5 minutes before the addition of CCK-8 and the EC50 of CCK-8 in the presence of the compound of Formula I similarly determined. The PA2 values and slope were obtained from regression analysis of a Schild plot (Brit. J. Pharmacol. 14: 48-58, 1959) using three concentrations of the compound of Formula I and 3-4 tissues at each concentration.

[4] = target: T3, isolated longitudinal muscle of guinea pig ileum (CCK-8) (Cavia porcellus, UniProt Q63931); experiment: Isolated longitudinal muscle of guinea pig ileum, antagonism of CCK-8 induced contraction; set-up: species or system Male Hartley guinea pigs
T3 construct: Longitudinal muscle strips with attached nerve plexus were prepared; from tissue; host or cells: guinea pig ileum longitudinal muscle with attached nerve plexus
T3 sequence (Q63931 1-430): T2 sequence (Q63931 1-430)
Procedure: Longitudinal muscle strips with attached nerve plexus were prepared as described previously (Brit J. Pharmac. 23:; 356-363, 1964; J. Physiol. 194: 13-33, 1969). Male Hartley guinea pigs were decapitated and the ileum was removed (10 cm of the terminal ileum was discarded and the adjacent 20 cm piece was used). A piece (10 cm) of the ileum was stretched on a glass pipette. Using a cotton applicator to stroke tangently away from the mesentery attachment at one end, the longitudinal muscle was separated from the underlying circular muscle. The longitudinal muscle was then tied to a thread and by gently pulling, stripped away from the entire muscle. A piece of approximately 2 cm was suspended in 5 ml organ bath containing Krebs solution and bubbled with 95% O2 and 5% CO2 at 37° C. under 0.5 g tension. CCK-8 was added cumulatively to the baths and EC50 and pA2 values determined as described in the gall bladder preparation (above).

[5] = Solubility characteristics; format: physicochemical

Structure (SMILES): O=C1c2ccccc2-n2c(nc3ccccc3c2=O)[C@@H]2C[C@]3(O)c4ccccc4N[C@@H]3N12 [Component A]
relative activity to antagonize CCK [1]: 1/70

Structure (SMILES): O=C1NC(Cc2c[nH]c3ccccc23)c2nc3ccccc3c(=O)n2-c2ccccc21 (stereo not drawn) [Component B]
relative activity to antagonize CCK [1]: 1/7

Structure (SMILES): O=C1Nc2ccccc2-c2nc3ccccc3c(=O)n2C1Cc1c[nH]c2ccccc12 (stereo not drawn) [Component C]
relative activity to antagonize CCK [1]: 1/30

Structure (SMILES): CC(C)C[C@H]1C(=O)N2c3ccccc3[C@@](O)(C[C@@H]3NC(=O)c4ccccc4-n4c3nc3ccccc3c4=O)[C@H]2N1O [Component D]
relative activity to antagonize CCK [1]: 5 x

Ki ([2]; estimated, 125I-CCK-33 receptor binding, read-out: Ki value (dissociation constant of inhibitor)): 900 nM | IC50 [2]: 1310 nM | IC50 ([2]; printed in parentheses): 1300 nM | mode of antagonism ([3]; CCK-8): competitive antagonist of CCK-8 | slope of the Schild plot ([3]; CCK-8): 0.95±0.19 | Kb ([3]; CCK-8, three concentrations, 3-4 tissues each, read-out: pA2 value (Schild plot) (converted)): 1000 nM | Ki ([3]; from Schild plot pA2, read-out: Ki value corresponding to pA2 (converted)): 1000 nM | mode of antagonism [4]: competitive antagonism of CCK | slope of the Schild plot ([4]; CCK-8): 0.89±0.20 | Kb ([4]; CCK-8, read-out: pA2 value (Schild plot) (converted)): 398 nM | Ki ([4]; from Schild plot pA2, read-out: Ki corresponding to pA2 (converted)): 400 nM | solubility: insoluble in ([5]; H2O, hexane, pet. ether): insoluble in: H2 O, hexane, pet. ether
Structure (SMILES): CC(C)C[C@@H]1N[C@H]2N(C1=O)c1ccccc1[C@@]2(O)C[C@@H]1NC(=O)c2ccccc2-n2c1nc1ccccc1c2=O [Formula I]
effect on KD (dissociation constant) and Bmax (maximum receptor number) of 125I-CCK-33 ([2]; Scatchard analysis, 1.3 μM): increased the KD (dissociation constant) without affecting the Bmax (maximum receptor number) | mode of inhibition of specific 125I-CCK-33 receptor binding ([2]; Scatchard analysis, absence and presence of 1.3 μM): competitively inhibited specific ^125 I-CCK-33 receptor binding | effect on CCK-8 dose-response ([3]; 1.3-13 μM): concentration dependent parallel shift to the right of the CCK-8 dose-response without change in the maximal contractile response | effect on CCK-8 dose-response ([4]; 1.3-13 μM): concentration dependent parallel shift to the right of the CCK-8 dose-response without change in the maximal contractile response | relative activity to antagonize CCK [1]: 1 x | solubility: soluble in ([5]; CHCl3, MeOH, EtOH, acetone, DMSO): soluble in: CHCl3, MeOH, EtOH, acetone, DMSO

effect on the 125I-CCK receptor binding assay [2]: no effect
Structure (SMILES): c1cnc2c(c1)ccc1cccnc12 [o-phenanthroline, reference compound]

Structure (SMILES): O=S(=O)(F)Cc1ccccc1 [phenylmethane sulfonyl fluoride, reference compound]
effect on the 125I-CCK receptor binding assay [2]: no effect
